The record followed here is patent publication US20230227445A1, “BENZAMIDE COMPOUND AND USE THEREOF” (HUMANWELL HEALTHCARE (GROUP) CO., LTD., priority 2020, published 2023).

Series [1] has as its system histamine/citric acid-stimulated cough in guinea pig. As to the kind of experiment: Efficacy test for histamine/citric acid-stimulated cough in guinea pig. It is filed as in vivo. As to conditions: guinea pigs, nasal drops, 0.17 mg/kg to 1.5 mg/kg, histamine/citric acid stimulation. The procedure: Guinea pigs were adaptively fed for 3 days to 7 days before being grouped. When the body weight of the guinea pigs reached 300 g to 400 g, they were numbered and randomly grouped.
Compounds or an excipient were administered to guinea pigs by nasal drops 0.25 hour to 24 hours before the start of the cough assessment. The administration dose of the test sample ranged from 0.17 mg/kg to 1.5 mg/kg. For the cough assessment, the guinea pigs were placed in a whole-body volume scan box for adaptation, and then, they were provided with histamine nebulization and then citric acid nebulization. […]
(§1) The experimental data was statistically analyzed by one-way ANOVA to analyze and compare data of the various groups. The statistical analysis result p<0.05 was regarded as a significant difference. The t-test was employed for difference comparison between any two.

A further series addresses T1, hP2X3 receptor (Homo sapiens, UniProt P56373).
T1 construct: expressed in transfected cells
T1 sequence (P56373 1-397): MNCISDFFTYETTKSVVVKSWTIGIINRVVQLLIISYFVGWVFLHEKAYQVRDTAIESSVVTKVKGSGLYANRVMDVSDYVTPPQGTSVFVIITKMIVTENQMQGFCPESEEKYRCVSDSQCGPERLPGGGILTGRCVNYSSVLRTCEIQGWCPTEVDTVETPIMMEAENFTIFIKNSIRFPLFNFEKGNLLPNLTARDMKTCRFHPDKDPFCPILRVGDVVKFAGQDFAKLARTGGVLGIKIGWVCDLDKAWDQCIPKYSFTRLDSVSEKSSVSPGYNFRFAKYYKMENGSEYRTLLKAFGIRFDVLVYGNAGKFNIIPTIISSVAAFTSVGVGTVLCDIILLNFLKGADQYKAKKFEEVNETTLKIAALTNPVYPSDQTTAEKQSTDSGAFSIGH
As to the kind of experiment: Antagonistic activity against hP2X3 receptor by FLIPR calcium flow assay. It is filed as cell-based. As to conditions: for IC50: human cells stably transfected with hP2X3, agonist α,β-meATP 400 nM; for antagonistic activity against hP2X3 receptor compared with Reference compound 1 (in words): vs Reference compound 1. The procedure:
The antagonistic activity of hP2X3 antagonists against hP2X3 receptor was evaluated by means of FLIPR Calcium 4 Assay Kit (Molecular Devices, R8141) and FLIPR TETRA instrument (Molecular Devices, 0296) by detecting calcium flow signals. 24h before the experiment, human cells, which had been stably transfected with hP2X3 receptors, were plated on a 384-well plate at 2×10^5 cells/mL, with 50 μL of cell suspension per well, and the plate was cultured in an incubator (37° C., 5% CO2) for 16 h to 24 h. The test compound solution (20 to 50 mM DMSO stock solution) with a concentration of 180 times the required concentration was prepared using DMSO. The stock solution was added to the 384-well plate at 500 nL per well, supplemented with 30 μL of FLIPR Assay buffer (1×HBSS+2 mM CaCl2 20 mM HEPES containing 1.26 mM Ca^2+). The 384-well plate was shaken for 20 to 40 min to mix evenly. An agonist (α, β-meATP) with a concentration of 3 times the required concentration (required final concentration was 400 nM) was prepared with FLIPR Assay buffer, and was added to another 384-well plate at 45 μL per well. The culture plate, on which the cells were plated one day ago, was taken, the cell supernatant was sucked and discarded, each well was added with 30 μL of Dye (FLIPR® Calcium 4 Assay Kit, diluted with FLIPR buffer), and then the plate was incubated for 1h. 15 μL of compound was added to each well of cells (using FLIPR sample injector). After 15 minutes, 22.5 μL of the agonist was added to each well, and the fluorescence signal (exciting light wavelength ranging from 470 nm to 495 nm, and emission wavelength ranging from 515 nm to 575 nm) was detect. […] An inhibition effect curve of the compound was fitted on the software GraphpadPrism6, and the IC50 value was calculated.

Series [2] is described as follows: Pharmacokinetic assay in mouse. As to conditions: for pharmacokinetic properties in mouse compared with Reference compound 1 and Reference compound 2 (in words): mouse assay, vs Reference compounds 1 and 2. It is filed as in vivo, ICR mice. The procedure:
For a mouse pharmacokinetic assay, male ICR mice (20 g to 25 g) were selected and fasted overnight. Three mice were intragastrically administered with 10 mg/kg of the corresponding compound. The blood of the mice was collected before the administration and at 15 min, 30 min, 1 h, 2 h, 4 h, 8 h, and 24 h after the administration. The blood samples were centrifuged at 4° C. for 6 minutes at 6,800 g, plasma was collected and stored at −80° C.
The supernatant was mixed with 3 times the amount of water, and an appropriate amount of the mixed solution was taken for LC-MS/MS analysis. The primary pharmacokinetic parameters were analyzed by WinNonlin 7.0 software non-atrioventricular model.

A further series has as its system rat taste. As to the kind of experiment: Taste test in rat (water vs 0.3 mM aqueous quinine solution intake). It is filed as in vivo, SD rats. The following applies: for Water/aqueous quinine solution (ratio of water intake to aqueous quinine solution intake): SD rats, 30 mg/kg i.p, 0.3 mM quinine, 15 min supply half an hour after administration. The procedure: SD rats were administered with the corresponding compound after 3 days of overnight water prohibition training. Each rat was supplied with 1 bottle of water and 1 bottle of 0.3 mM aqueous quinine solution half an hour after the administration. After 15 min of water supply, the bottles were removed. The intake amount of water and the intake amount of the 0.3 mM aqueous quinine solution were measured, respectively. The taste influence of the compound on SD rats was evaluated based on the difference between the intake amount of water and the intake amount of the aqueous quinine solution.

Series [3] concerns ATP/citric acid-stimulated cough in guinea pig. As to the kind of experiment: Efficacy test for ATP/citric acid-stimulated cough in guinea pig. It is filed as in vivo. The following applies: guinea pigs, nasal drops, 0.17 mg/kg to 1.5 mg/kg, ATP/citric acid stimulation. The procedure:
Guinea pigs were adaptively fed for 3 days to 7 days before being grouped. When the body weight of the guinea pigs reached 300 g to 400 g, they were numbered and randomly grouped. Compounds or an excipient were administered to guinea pigs by nasal drops 0.25 hour to 24 hours before the start of the cough assessment. The administration dose of the test sample ranged from 0.17 mg/kg to 1.5 mg/kg. For the cough assessment, the guinea pigs were placed in a whole-body volume scan box for adaptation, and then provided with ATP nebulization, and a few minutes later, they were provided with citric acid nebulization. The cough times within 15 minutes and the cough latency were recorded from the beginning of citric acid nebulization.
as §1

Series [4] can be described thus: Pharmacokinetic assay in canine. It is filed as in vivo, Beagle dogs. The procedure: For a canine pharmacokinetic assay, male Beagle dogs (8 kg to 10 kg) were selected and fasted overnight. Three Beagle dogs were intragastrically administered with 5 mg/kg of the corresponding compound. Another 3 Beagle dogs were intravenously administered with 1 mg/kg of the corresponding compound. The blood of the dogs was collected before the administration and at 15 min, 30 min, 1 h, 2 h, 4 h, 8 h, and 24 h after the administration. The blood samples were centrifuged at 4° C. for 6 minutes at 8,000 r/min, plasma was collected and stored at −20° C. […] The supernatant was taken and mixed with 3 times the amount of water, and an appropriate amount of the mixed solution was taken for LC-MS/MS analysis. The primary pharmacokinetic parameters were analyzed by WinNonlin 7.0 software non-atrioventricular model.

Series [5] in a line: Pharmacokinetic assay in rat. It is filed as in vivo, SD rats. As to conditions: rat, plasma, po, male SD rats, intragastric administration, 10 mg/kg. The procedure: For a rat pharmacokinetic assay, male SD rats (180 g to 240 g) were selected and fasted overnight. Three rats were intragastrically administered with 10 mg/kg of the corresponding compound. The blood of the rats was collected before the administration and at 15 min, 30 min, 1 h, 2 h, 4 h, 8 h, and 24 h after the administration. The blood samples were centrifuged at 4° C. for 6 minutes at 8,000 r/min, and plasma was collected and stored at −20° C. Plasma at each time point was taken, and added with 3 to 5 times the amount of an internal standard-containing acetonitrile solution to mix, and the mixture was vortex mixed for 1 minute, and centrifuged at 4° C. for 10 minutes at 13,000 r/min. The supernatant was taken and mixed with 3 times the amount of water, and an appropriate amount of the mixed solution was taken for LC-MS/MS analysis. The primary pharmacokinetic parameters were analyzed by WinNonlin 7.0 software non-atrioventricular model.

The mark [6] stands for this setting: mouse, plasma, po, male ICR mice, intragastric administration, 10 mg/kg.
Setting [7] is: dog, plasma, po, male Beagle dogs, intragastric administration, 5 mg/kg.
Where [8] appears, read: dog, plasma, male Beagle dogs, intravenous administration, 1 mg/kg.

For orientation: IC50 means the concentration that gives 50% inhibition. On to `Cc1cnc(-c2cc(O[C@@H](C)[C@@H](C)O)cc(C(=O)N[C@H](C)c3cnc(C(F)(F)F)nc3)c2F)s1` [Compound I-27, 2-fluoro-5-(((2S, 3R)-3-hydroxybutan-2-yl)oxy)-3-(5-methylthiazol-2-yl)-N—((R)-1-(2-(trifluoromethyl)pyrimidin-5-yl)ethyl)benzamide], for which the “Average cough times within 15 min” value in series [1] was found to be 8.9. In addition, on hP2X3 receptor, the IC50 is 67 nM and the “antagonistic activity against hP2X3 receptor compared with Reference compound 1 (in words)” value is recorded as “better antagonistic activity”. In addition, the “pharmacokinetic properties in mouse compared with Reference compound 1 and Reference compound 2 (in words)” value in series [2] was “significantly improved pharmacokinetic properties”. In addition, the “Water/aqueous quinine solution (ratio of water intake to aqueous quinine solution intake)” value in the series with rat taste is reported as 29.4. In addition, the “interference on rat taste compared with Reference compound 1 (in words)” value in the series with rat taste (vs positive reference compound) was “significantly less interference on rat taste”. For the same compound, the “Average cough times within 15 min” value in series [3] amounted to 6.3.

Usually AUC(0-t) stands for the area under the concentration-time curve up to a stated or last time point. Lower therefore signals low exposure. In general, Cmax refers to the peak of the concentration-time curve. Broadly, the Tmax is the time from dosing to the highest level. Broadly, the clearance is a measure of how efficiently the substance is removed, as volume per time. Higher therefore signals a high capacity for elimination. In the case of `Cc1cnc(-c2cc(O[C@H](C)[C@H](C)O)cc(C(=O)N[C@H](C)c3cnc(C(F)(F)F)nc3)c2F)s1` [Compound I-29, 2-fluoro-5-(((2R, 3S)-3-hydroxybutan-2-yl)oxy)-3-(5-methylthiazol-2-yl)-N—((R)-1-(2-(trifluoromethyl)pyrimidin-5-yl)ethyl)benzamide], in series [1], the “Average cough times within 15 min” value was found to be 10.8 and the “Cough inhibition rate vs. solvent” value came to 59.4%. Also, at hP2X3 receptor, the IC50 is 57 nM and the “antagonistic activity against hP2X3 receptor compared with Reference compound 1 (in words)” value was “better antagonistic activity”. Also, the “pharmacokinetic properties in mouse compared with Reference compound 1 and Reference compound 2 (in words)” value in series [2] is “significantly improved pharmacokinetic properties”. Moreover, in series [2] (setting [6]), the AUC(0-t) came to 14900 ng·h/mL, the peak level (Cmax) was 4100 ng/mL and the Tmax was 1 h. In addition, the half-life in series [2] (mouse, plasma, po, male ICR mice, intragastric administration, 10 mg/kg, read-out: T½ (converted)) is 2.23 h. The “Water/aqueous quinine solution (ratio of water intake to aqueous quinine solution intake)” value with rat taste was 12.0. In series [4] (canine), the “half-life (in words)” value is reported as “long half-life”. For the same compound, the “clearance rate (in words)” value in series [4] (canine, intravenous administration) is “low clearance rate”. Moreover, in series [4] (canine, oral and intravenous administrations), the “exposure (in words)” value is recorded as “high exposure”. Also, the “pharmacokinetic characteristics compared with the reference compound (in words)” value in series [4] (canine, vs reference compound) is on record as “better pharmacokinetic characteristics”. For the same compound, in series [4] (setting [7]), the AUC(0-t) came out at 8730 ng·h/mL, the Cmax was 1160 ng/mL, the Tmax is 1 h and the half-life is 7.26 h. In series [4] (setting [8]), the AUC(0-t) was determined as 2010 ng·h/mL, the clearance was 7.5 mL/min/kg and the half-life is 7.64 h. Further, in series [4] (dog, plasma, male Beagle dogs, intravenous administration, 1 mg/kg, read-out: Vz), the Vd turned out to be 5 L/kg.

Regarding `Cc1cnc(-c2cc(O[C@@H]3CCOC3)cc(C(=O)N[C@H](C)c3cnc(C(F)(F)F)nc3)c2)s1` [Reference compound 1, reference compound], in series [5], the AUC(0-t) was 3330 ng·h/mL, the Cmax is 417 ng/mL and the Tmax is 2 h. Besides, the half-life in series [5] (read-out: T½ (converted)) was 4.01 h. In addition, the “Average cough times within 15 min” value in series [3] came out at 8.1.
